# Source: paper PMC12406685, “Thiazole substitution of a labile amide bond—a new option toward antiplasmodial pantothenamide-mimics” (Antimicrobial Agents and Chemotherapy, 2025)
# Test system: PfPanK
# Assay: [14C]pantothenate phosphorylation assay in P. falciparum lysates (Somogyi reagent)
# Type: biochemical
# Conditions: PfPanK versus HsPanK3 selectivity
# Protocol: Parasite lysates were prepared from saponin-isolated mature trophozoite-stage parasites as described by Saliba et al. ([14]), with modifications. Briefly, a culture with predominantly trophozoite stage parasites was thoroughly mixed with saponin (0.05% [wt/vol] final concentration) and centrifuged at 2,000 × g for 8 min at 4°C. The pelleted parasites were then transferred to a 1.5 mL tube and washed three times (16,000 × g, 1 min each time) with cold malaria saline (125 mM NaCl, 5 mM KCl, 25 mM HEPES, 20 mM glucose, 1 mM MgCl2, pH 7.1). Subsequently, washed saponin-isolated parasites were suspended in 1 mL of 10 mM Tris/Cl, pH 7.4, followed by trituration (10 times) through a SafetyGlide injection needle (25-gauge). The lysates were then centrifuged at 16,000 × g for 30 min at 4°C, and the supernatant was transferred to a new tube. The concentration of the lysates was then determined using the Bradford reagent.
# Phosphorylation of [^14C]pantothenate was determined using a combination of zinc sulphate (ZnSO4) and barium hydroxide (Ba(OH)2) (Somogyi reagent) as previously described ([78]). In the 125 min time course, each reaction (650 µL) contained a final concentration of 50 mM Tris-Cl (pH 7.4), 5 mM ATP, 5 mM MgCl2, 2 µM (0.1 µCi/mL) [^14C]pantothenate, and 60 µg of total parasite lysate. The compounds were added at their 10× antiplasmodial IC50 values or at various concentrations to generate dose–response curves. Mixtures were incubated at 37°C throughout the experiment, and reactions were initiated by the addition of the lysates. A reaction with identical components to the test reactions but lacking the parasite lysate was prepared to serve as a no-phosphorylation negative control, and a reaction with DMSO vehicle control (0.2% vol/vol) served as a positive control. At pre-determined time points, 50 µL of the reaction mixture was transferred in triplicate to wells of a 96-well filter plate with 0.2 µm hydrophilic polyvinylidene fluoride (PVDF) membrane filter (Corning), which had been pre-loaded with 50 µL of 150 mM Ba(OH)2. The reaction mixtures were thoroughly mixed with the Ba(OH)2 in the wells to precipitate the enzyme and terminate the phosphorylation reaction. After all reactions had been terminated, phosphorylated compounds in each well were precipitated by the addition of 50 µL of 150 mM ZnSO4 to generate the Somogyi reagent. The plate was then washed twice with deionized H2O and once with 95% (vol/vol) ethanol using a vacuum manifold to remove the non-phosphorylated [^14C]pantothenate and was subsequently dried overnight at 37°C in a non-humidified incubator. The following day, 30 µL of Microscint-O (PerkinElmer) was added to each well, and the plate was sealed on the top and bottom with TopSeal-A Plus sealing film (PerkinElmer). A Packard Microplate Scintillation and Luminescence Counter was used to measure the radioactivity in each well immediately after the plate had been sealed. To determine the total radioactivity in each phosphorylation assay, 50 µL of each reaction mixture was added to the wells of an OptiPlate-96 microplate (PerkinElmer) in triplicate and was then thoroughly mixed with 150 µL of Microscint-40 (PerkinElmer), and the radioactivity was measured in the same manner. Phosphorylation of [^14C]pantothenate, calculated as a percentage of the radioactivity measured in the test wells relative to the total radioactivity in the phosphorylation assay, was then plotted against the reaction time. Each data set was analyzed by linear regression, from which the phosphorylation rate of each reaction was then determined and expressed as a percentage of the phosphorylation rate of the DMSO-positive control reaction.
smiles,measurement,value
CC(C)(CO)[C@@H](O)C(=O)NCc1csc(-c2ccccc2)n1 [Compound 2e],Fold by which IC50 at inhibiting PfPanK-mediated pantothenate phosphorylation is lower than Km observed for HsPanK3,120 fold
